For experiment [1], the system named is PI3K/Akt signaling in PC3 cells. Briefly: PI3K/Akt signaling, Western blot, PC3 cells. Format: cell-based. The conditions noted are these: 12 h treatment, immunoblot. On the procedure: PC3 cells were treated with the indicated concentrations of 64 for 12 h. At the end of treatment, cells were harvested and total cell lysates were prepared. Immunoblot analysis was performed to analyze the expression levels of p‐Akt (T308 and S473), p‐PRAS40 (T246; a target of Akt), as well as the levels of p‐p70S6K (T389), p‐GSK3α/β (S9), and p‐FOXO3A (T32). The figure is representative of at least three independent experiments.
Western blot analysis: PC3 cells were seeded in 96‐well plates in the presence of free Dulbecco's modified Eagle's medium (DMEM) high‐glucose GlutaMAX^TM (Gibco), 10 % fetal bovine serum (Invitrogen) supplemented with 5000 U mL^−1 penicillin–streptomycin (Gibco). Subsequently, PC3 cells were incubated with increasing concentrations of […] for 12 h. Cells were then lysed with a lysis buffer containing 20 mM Tris‐HCl pH 8, 138 mM NaCl, 2.7 mM KCl, 1 mM CaCl2, 5 mM EDTA pH 8, 1 mM MgCl2, 5 % glycerol, 1 % Triton X‐100, and protein extracts were analyzed by Western blot analysis. […]
For orientation: Immunoblotting shows a protein as a band on a membrane.

The target in experiment [2] is T1, hVps34 (PIK3C3) (Homo sapiens, UniProt Q8NEB9).
T1 construct: purchased ProQinase, Germany 1160‐0000‐1
Briefly: lipid kinase assay (ADP-Glo), PI3K-C3. Format: biochemical. The conditions noted are these: Table 2; mean of at least three determinations, 95 % confidence intervals; read-out: IC50 PI3Kc3. As to the method:
In vitro selection, lipid kinase assay: To determine the inhibitory activity of the new molecular entities on PI3K enzyme, a lipid kinase assay was performed: recombinant proteins (30 ng), human PI3Kα (PIK3CA/PIK3R1, #1161‐1165‐1 ProQinase–Germany), hPI3Kβ (PIK3CB wt/PIK3R1, #1168‐1165‐1 ProQinase, Germany), hPI3Kγ (PIK3CG, #1163‐0000‐1 ProQinase, Germany), hPI3Kδ (PIK3CD/PIK3R1, #1162–1165‐1 ProQinase, Germany), hPI3K‐C2α (PIK3C2A, #14‐906 Merck Millipore_Merck KGaA, Germany), hPI3K‐C2β (PIK3C2B, #14‐907 Merck Millipore_Merck KGaA, Germany), hPI3K‐c2γ (PIK3C2G, #1207‐0000‐1 ProQinase, Germany), and hVps34 (PIK3C3, #1160‐0000‐1 ProQinase, Germany), were incubated in kinase buffer {12.5 μL; 20 mM Tris‐HCl pH 7.5, 10 mM MgCl2, 10 μM ATP, 0.05 mg mL^−1 BSA, 0.5 mM EDTA, 5 mM HEPES pH 7.5, for PI3Kα,PI3Kβ, PI3Kγ, PI3Kδ, PI3KC‐2α, and PI3KC‐2γ; 15 mM MnCl2, 5 mM EGTA, 100 μM ATP, 50 mM HEPES pH 7.5, 100 mM NaCl, and 0.03 % CHAPS for PI3K‐C2β and VPS34 {BSA=bovine serum albumin; EDTA=ethylenediaminetetraacetic acid; HEPES=4‐(2‐hydroxyethyl)‐1‐piperazineethanesulfonic acid; EGTA=ethylene glycol‐bis(2‐aminoethylether)‐N,N,N′,N′‐tetraacetic acid; CHAPS=3‐[(3‐cholamidopropyl)dimethylammonio]‐1‐propanesulfonate}. In the reaction, the ATP concentration used for different PI3Ks was defined on the basis of the Michaelis–Menten kinetics of each enzyme, provided by the supplier. […]
In general terms: ADP-Glo turns the ADP formed in a reaction into a luminescent signal.

T1 sequence (Q8NEB9 whole entry): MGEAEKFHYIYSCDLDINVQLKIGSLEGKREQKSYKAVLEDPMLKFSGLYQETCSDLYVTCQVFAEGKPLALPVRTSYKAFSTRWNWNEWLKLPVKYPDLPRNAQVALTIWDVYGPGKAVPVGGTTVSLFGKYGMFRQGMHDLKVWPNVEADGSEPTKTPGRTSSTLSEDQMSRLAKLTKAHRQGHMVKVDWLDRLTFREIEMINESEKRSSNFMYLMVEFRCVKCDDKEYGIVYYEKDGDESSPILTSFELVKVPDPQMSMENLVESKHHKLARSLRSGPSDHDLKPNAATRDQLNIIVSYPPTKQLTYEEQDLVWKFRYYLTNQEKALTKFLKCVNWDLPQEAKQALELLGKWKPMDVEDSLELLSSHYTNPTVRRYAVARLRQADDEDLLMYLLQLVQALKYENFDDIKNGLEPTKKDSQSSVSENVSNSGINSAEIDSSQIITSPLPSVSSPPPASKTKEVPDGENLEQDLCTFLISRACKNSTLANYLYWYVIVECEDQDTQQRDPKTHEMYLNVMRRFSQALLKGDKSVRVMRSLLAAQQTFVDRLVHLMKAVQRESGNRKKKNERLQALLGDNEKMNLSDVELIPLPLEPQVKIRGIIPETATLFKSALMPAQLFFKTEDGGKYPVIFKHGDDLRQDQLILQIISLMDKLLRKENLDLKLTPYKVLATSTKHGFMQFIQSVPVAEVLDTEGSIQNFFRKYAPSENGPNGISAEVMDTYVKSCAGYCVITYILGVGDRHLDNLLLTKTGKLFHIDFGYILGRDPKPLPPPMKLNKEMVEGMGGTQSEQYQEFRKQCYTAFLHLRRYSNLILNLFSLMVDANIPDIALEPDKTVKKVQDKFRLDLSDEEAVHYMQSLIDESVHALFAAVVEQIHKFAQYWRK

In the case of `COC(=O)c1cccc(Cn2cc(-c3cccc4c(=O)cc(N5CCOCC5)[nH]c34)nn2)c1` [Compound 64, Methyl 3‐{[4‐(2‐morpholino‐4‐oxo‐1,4‐dihydroquinolin‐8‐yl)‐1H‐1,2,3‐triazol‐1‐yl]methyl}benzoate], the “levels of p-Akt and Akt effectors” value in experiment [1] is given as “attenuated, in a dose‐dependent manner, the levels of p‐Akt”.
In the case of `O=C(O)c1cccc(Cn2cc(-c3cccc4c(=O)cc(N5CCOCC5)[nH]c34)nn2)c1` [Compound 37, 3‐{[4‐(2‐Morpholino‐4‐oxo‐1,4‐dihydroquinolin‐8‐yl)‐1H‐1,2,3‐triazol‐1‐yl]methyl}benzoic acid], the IC50 in experiment [2] came out at 590 ± 200 nM.

Usually IC50 stands for the concentration needed to halve the response being measured.

Values taken from PMC5697638, “Identification of a Potent Phosphoinositide 3‐Kinase Pan Inhibitor Displaying a Strategic Carboxylic Acid Group and Development of Its Prodrugs” (Chemmedchem, 2017).
